Data on 1 molecule can be found in patent US20130041036A1, “FERULIC ACID AS FEED SUPPLEMENT IN BEEF CATTLE TO PROMOTE ANIMAL GROWTH AND IMPROVE THE MEAT QUALITY OF THE CARCASS AND THE MEAT” (BIOKAB, S.A. DE C.V., priority 2011, published 2013).

Marks after values point to notes of the source that are not given here.

Experiment [1] has as its system pigs. The conditions noted are these: pigs supplemented with 50 ppm of ferulic acid; cited from earlier work.
The test system of experiment [2] is Longissimus dorsi muscle. The experiment in a line: Sensory test of Longissimus dorsi meat by trained panel. It is filed as in vivo, beef cattle of commercial breeds. The conditions noted are these: for Tenderness / Connective tissue perception / Fat perception / Flavor intensity / Juiciness / Odor intensity: cooked meat; for Tenderness: 10 cm scale, zero extremely hard, 10 extremely tender; for Connective tissue perception / Fat perception / Flavor intensity / Juiciness / Odor intensity / Appearance / Overall Color: semi-structured 10 cm scale; for Appearance / Overall Color: raw meat. The method, then:
Subsequent to the carcass classification the rib eye cut (LD muscle) was obtained of the left side of each selected carcass. Meat samples were identified, vacuum packed, frozen at -18° C., and then shipped under refrigeration by air courier to the Centro de Investigación en Alimentacion y Desarrollo A.C. (CIAD) facilities at Hermosillo, Sonora, to perform quality analysis of the meat: Chemical analysis (moisture and fat content), physicochemical (objective color parameters L*, which measures the brightness of the meat, a* value, which measures the redness, and b* value which measures the tendency towards yellowness, and hue-angle, Warner-Bratzler shear force, water retention capacity and pH). A sensory test was done by a trained panel consisting of 10 members using a descriptive test with a semi-structured 10 cm scale, where zero indicates a […] of the attribute and a 10 indicates a favorable rating (e.g. tenderness, zero indicates extremely hard and 10 extremely tender). The sensory attributes that were measured: total color and overall appearance of raw meat, flavor, odor, color, tenderness, fat perception, juiciness, and perception of connective tissue in cooked meat. […] To measure cooking loss, the meat sample was weighed before and immediately after reaching the final cooking temperature, which was expressed in percentage. All data for response variables of the quality of carcass and meat were analyzed under a completely randomized design, with a one-way ANOVA, taking the experimental treatments as a fixed effect. For carcass BFT and REA characteristics the hot carcass weight was used as a covariable. Regarding the sensory attributes, the model also included the effect of panelist as the repeated measure. The variables of the shelf life study were analyzed as a completely randomized design with factorial arrangement, factor A being the treatment with 4 levels, and factor B, the storage time with 5 levels. When there were statistical differences (P<0.05) between treatments, average comparisons were performed by the multiple range test of Tukey.

The mark [3] stands for this setting: 240 ppm ferulic acid, last 60 days (FA60).
Where [4] appears, read: FA30 240 ppm or ZX 6 ppm, last 30 days of fattening.
[5] abbreviates: FA30 240 ppm or ZX 6 ppm, last 30 days of fattening, listed as FA30.

Regarding `COc1cc(/C=C/C(=O)O)ccc1O` [ferulic acid, trans-4-hydroxy-3-methoxy cinnamic acid], the “thickness of the dorsal fat” value in experiment [1] is given as “decrease in the thickness of the dorsal fat”. Besides, in experiment [2] (setting [3]), the Tenderness is 7.54^ab, the Connective tissue perception is 1.50, the Fat perception came out at 3.62 and the Flavor intensity was 7.32^ab. In experiment [2] (setting [3]), the Juiciness was 6.76^ab, the Odor intensity amounted to 7.90, the Appearance is 7.11 and the “Overall Color” value was determined as 7.65. Further, in experiment [2] (setting [4]), the Tenderness result is “more tender”, the Connective tissue perception is 1.57, the Fat perception was determined as 3.22 and the Flavor intensity entry was “better flavored”. For the same molecule, in experiment [2] (setting [4]), the Juiciness result was “juicier”, the Odor intensity is 8.05, the Appearance is 7.41 and the “Overall Color” value is listed as 7.51. In experiment [2] (setting [5]), the Tenderness is 7.68^b, the Flavor intensity is 7.73^b and the Juiciness is 7.09^b.
